Columns and labels:
[1] = target: Transient receptor potential M8 protein (Canis lupus familiaris, UniProt Q1A7N1); assay: Antagonist activity at dog TRPM8 expressed in HEK293 cells assessed as inhibition of icilin-induced calcium influx incubated for 5 mins prior to icilin induction measured after 5 mins by fluorescence assay; format: cell-based
[2] = test system: Rattus norvegicus; assay: Anti-cold hypersensitive activity in rat assessed as inhibition of icilin-induced wet-dog shaking at 30 mg/kg, po measured for 10 mins relative to control; format: functional

Sequence of Transient receptor potential M8 protein (Q1A7N1 whole entry): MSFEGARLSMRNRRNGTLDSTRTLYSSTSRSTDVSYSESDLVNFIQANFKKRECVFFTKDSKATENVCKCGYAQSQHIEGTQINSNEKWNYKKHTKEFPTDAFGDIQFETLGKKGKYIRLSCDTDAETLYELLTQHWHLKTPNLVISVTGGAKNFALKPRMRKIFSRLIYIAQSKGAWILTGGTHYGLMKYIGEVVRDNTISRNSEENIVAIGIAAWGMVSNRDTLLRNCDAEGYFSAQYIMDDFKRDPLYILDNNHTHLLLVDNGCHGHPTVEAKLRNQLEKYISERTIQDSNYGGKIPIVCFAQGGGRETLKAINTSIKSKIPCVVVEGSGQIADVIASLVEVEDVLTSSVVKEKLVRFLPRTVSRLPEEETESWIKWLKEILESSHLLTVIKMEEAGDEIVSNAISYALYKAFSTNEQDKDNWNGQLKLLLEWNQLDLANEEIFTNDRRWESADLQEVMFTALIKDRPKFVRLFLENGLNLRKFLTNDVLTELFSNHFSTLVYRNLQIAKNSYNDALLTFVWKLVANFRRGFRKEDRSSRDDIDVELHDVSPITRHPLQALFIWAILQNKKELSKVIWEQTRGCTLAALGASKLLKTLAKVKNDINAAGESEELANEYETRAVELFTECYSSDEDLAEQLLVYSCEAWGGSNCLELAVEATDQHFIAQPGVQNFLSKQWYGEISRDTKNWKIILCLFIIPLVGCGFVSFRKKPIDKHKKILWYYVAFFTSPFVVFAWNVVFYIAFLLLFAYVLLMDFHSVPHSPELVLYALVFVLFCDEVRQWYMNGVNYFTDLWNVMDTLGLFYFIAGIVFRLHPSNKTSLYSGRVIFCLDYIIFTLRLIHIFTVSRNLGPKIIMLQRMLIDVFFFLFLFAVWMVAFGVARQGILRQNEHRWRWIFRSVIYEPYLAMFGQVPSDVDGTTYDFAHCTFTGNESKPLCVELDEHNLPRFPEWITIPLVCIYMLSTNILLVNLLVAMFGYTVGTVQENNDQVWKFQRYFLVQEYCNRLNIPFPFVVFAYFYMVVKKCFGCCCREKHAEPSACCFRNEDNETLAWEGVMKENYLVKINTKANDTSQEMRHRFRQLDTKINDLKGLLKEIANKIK

| Compound | IC50 [1] | inhibition in vivo at 30 mg/kg [2] |
| --- | --- | --- |
| O=C(O)c1ccc(C2CCCN2C(=O)C(Nc2ccccc2F)c2cc3ccccc3s2)cc1 (racemic) | 41 nM | – |
| O=C(C(Nc1ccccc1F)c1ccc(C(F)(F)F)cc1)N1CCC[C@@H]1c1ccccc1 (stereo partly drawn) | 43 nM | – |
| O=C(C(Nc1ccccc1F)c1ccc(C(F)(F)F)cc1)N1CCC[C@@H]1c1ccccc1F (mixture of isomers) | 44 nM | – |
| O=C(C(Nc1ccccc1F)c1ccc(C(F)(F)F)cc1)N1CCC[C@H]1c1ccccc1F (mixture of isomers) | 8 nM | 63% |
| O=C([C@@H](Nc1ccccc1F)c1ccc(C(F)(F)F)cc1)N1CCC[C@H]1c1ccccc1F | 6 nM | 99% |
| O=C(O)c1ccc(-c2ccc(C(Nc3ccccc3F)C(=O)N3CCC[C@H]3c3ccccc3F)cc2)cc1 (mixture of isomers) | 56 nM | – |
| O=C(C(Nc1ccccc1F)c1ccc(C(F)(F)F)cc1)N1CCC[C@H]1c1ccccc1Cl (mixture of isomers) | 17 nM | 79% |
| O=C(C(Nc1ccccc1F)c1ccc(C(F)(F)F)cc1)N1CCC[C@H]1c1ccccc1 (mixture of isomers) | 5 nM | 56% |
| O=C(C(Nc1ccccc1F)c1ccc(-c2ccncc2)cc1)N1CCCC1c1ccccc1F (racemic) | 25 nM | – |

The remaining compounds from weak to strong by IC50 [1], led by results:

| IC50 [1] | Compound | inhibition in vivo at 30 mg/kg [2] |
| --- | --- | --- |
| 168 nM | O=C(C(Nc1ccccc1)c1ccc(C(F)(F)F)cc1)N1CCC[C@@H]1c1ccccc1Cl (mixture of isomers) | – |
| 45 nM | O=C([C@H](Nc1ccccc1F)c1ccc(C(F)(F)F)cc1)N1CCC[C@H]1c1ccccc1F | – |
| 41 nM | O=C(C(Nc1ccccc1)c1ccc(C(F)(F)F)cc1)N1CCC[C@H]1c1ccccc1Cl (mixture of isomers) | – |
| 40 nM | O=C(O)c1cccc(C2CCCN2C(=O)C(Nc2ccccc2F)c2ccc(C(F)(F)F)cc2)c1 (racemic) | – |
| 11 nM | O=C(C(Nc1ccccc1F)c1ccc(C(F)(F)F)cc1)N1CCCC1c1ccccc1Cl (racemic) | – |
| 9 nM | O=C(C(Nc1ccccc1F)c1ccc(Br)cc1)N1CCC[C@H]1c1ccccc1F (mixture of isomers) | – |
| 7 nM | O=C(C(Nc1ccccc1F)c1ccc(-c2cccnc2)cc1)N1CCC[C@H]1c1ccccc1F (mixture of isomers) | -13% |
| 7 nM | O=C(C(Nc1ccccc1F)c1ccc(C(F)(F)F)cc1)N1CCCC1c1ccccc1F (racemic) | – |
| 3 nM | O=C(C(Nc1ccccc1F)c1cc2ccccc2s1)N1CCC[C@H]1c1ccccc1F (mixture of isomers) | – |
